Active and inactive are the calls of the source.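 The calls were made as follows: active = response above 60% of the acetylcholine maximum at the M5 muscarinic receptor, read as positive allosteric modulation; inactive = the rest.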

As a reminder, the EC50 is the concentration giving half of the maximal effect.

The first assay deals with Muscarinic acetylcholine receptor M5 (Rattus norvegicus) (UniProt P08911). As to the kind of experiment: potentiation of ACh response at rat M5 – cell-based, rat ortholog, CHO-K1, calcium flux, ACh EC20, selectivity assay for M5 PAM project, dose response (AID 743111). As to conditions: CHO-K1 rat M5, Fluo-4 calcium flux. On the technique in general: A change in cytosolic calcium serves as a functional read-out for many receptors and channels.
Muscarinic acetylcholine receptor M5 (Rattus norvegicus), sequence (P08911 whole entry, looked up): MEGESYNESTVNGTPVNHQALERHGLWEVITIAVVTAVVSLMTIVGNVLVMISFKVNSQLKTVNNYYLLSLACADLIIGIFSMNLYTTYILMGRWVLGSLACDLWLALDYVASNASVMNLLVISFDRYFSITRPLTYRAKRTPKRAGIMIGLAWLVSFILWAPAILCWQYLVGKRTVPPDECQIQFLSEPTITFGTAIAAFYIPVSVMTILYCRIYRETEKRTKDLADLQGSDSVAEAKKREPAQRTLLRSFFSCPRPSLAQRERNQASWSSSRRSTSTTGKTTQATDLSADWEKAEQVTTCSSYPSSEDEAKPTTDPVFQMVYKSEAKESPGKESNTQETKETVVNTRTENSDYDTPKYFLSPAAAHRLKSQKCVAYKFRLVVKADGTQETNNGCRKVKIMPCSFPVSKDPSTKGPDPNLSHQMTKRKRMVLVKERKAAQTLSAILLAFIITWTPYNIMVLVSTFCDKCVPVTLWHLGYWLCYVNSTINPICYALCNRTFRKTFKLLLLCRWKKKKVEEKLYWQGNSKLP
On to `CCN(Cc1ccccc1C(F)(F)F)C(=O)C1CCN(S(=O)(=O)c2ccc3cn[nH]c3c2)CC1`, for which the EC50 was 1200 nM.

With `CCN(Cc1ccccc1)C(=O)C1CCN(S(=O)(=O)c2ccc3[nH]ncc3c2)CC1`, the EC50 is 1450 nM.

`CCN(C(=O)C1CCN(S(=O)(=O)c2ccc3cn[nH]c3c2)CC1)[C@H](C)c1ccccc1`: the EC50 is 860 nM.

As for `CCN(C(=O)C1CCN(S(=O)(=O)c2ccc3[nH]ncc3c2)CC1)[C@H](C)c1ccccc1`, the EC50 is 640 nM.

Regarding `CCN(Cc1ccccc1C(F)(F)F)C(=O)C1(F)CCN(S(=O)(=O)c2ccc3[nH]ncc3c2)CC1`, the concentration for a half-maximal effect (EC50) is 710 nM.

As to `CCN(Cc1ccccc1)C(=O)C1CCN(S(=O)(=O)c2ccc3cn[nH]c3c2)CC1`, the EC50 is 1950 nM.

With `CCCN(Cc1ccccc1C(F)(F)F)C(=O)C1CCN(S(=O)(=O)c2ccc3[nH]ncc3c2)CC1`, the EC50 was 320 nM.

Take `CCN(Cc1ccccc1Cl)C(=O)C1CCN(S(=O)(=O)c2ccc3[nH]ncc3c2)CC1`: the EC50 was 300 nM.

`CCN(C(=O)C1CCN(S(=O)(=O)c2ccc(OC)cc2)CC1)[C@H](C)c1ccccc1`: the EC50 was 1570 nM.

As for `CCN(Cc1ccccc1C(F)(F)F)C(=O)C1CCN(S(=O)(=O)c2ccc3[nH]ncc3c2)CC1`, the EC50 was 540 nM.

Consider `CCN(C(=O)C1CCN(S(=O)(=O)c2ccc(-n3cccn3)cc2)CC1)[C@H](C)c1ccccc1`, for which the EC50 was 1200 nM.

Staying with this assay, now noted: CHO-K1 rat M5, Fluo-4 calcium flux, at 30 µM (top of the series).
Take `CCN(Cc1ccccc1)C(=O)C1CCN(S(=O)(=O)c2ccc3c(c2)OCCO3)CC1`: the “% ACh max response” value is “inactive”.

As to `CCN(Cc1ccccc1)C(=O)C1CCN(S(=O)(=O)c2ccc(OC)cc2)CC1`, the “% ACh max response” value was “inactive”.

For the origin of these results see PubChem BioAssay AID743111 (Vanderbilt Specialized Chemistry Center, 2013).
